From ChEMBL document CHEMBL3124764, “6-Triazolyl-substituted sulfocoumarins are potent, selective inhibitors of the tumor-associated carbonic anhydrases IX and XII” (Bioorg Med Chem Lett, 2014)
pKi: −log10 of the molar value.

What was measured:
Carbonic anhydrase 2 = Carbonic anhydrase 2 (Homo sapiens, UniProt P00918); assay: Inhibition of human recombinant carbonic anhydrase 2-mediated CO2 hydration after 6 hrs by stopped-flow assay
Carbonic anhydrase 9 [1] = biological target: T1, Carbonic anhydrase 9 (Homo sapiens, UniProt Q16790); assay: Inhibition of human recombinant carbonic anhydrase 9-mediated CO2 hydration after 6 hrs by stopped-flow assay
Carbonic anhydrase 1 = Carbonic anhydrase 1 (Homo sapiens, UniProt P00915); assay: Inhibition of human recombinant carbonic anhydrase 1-mediated CO2 hydration after 6 hrs by stopped-flow assay
Sequence of Carbonic anhydrase 1 (P00915 whole entry): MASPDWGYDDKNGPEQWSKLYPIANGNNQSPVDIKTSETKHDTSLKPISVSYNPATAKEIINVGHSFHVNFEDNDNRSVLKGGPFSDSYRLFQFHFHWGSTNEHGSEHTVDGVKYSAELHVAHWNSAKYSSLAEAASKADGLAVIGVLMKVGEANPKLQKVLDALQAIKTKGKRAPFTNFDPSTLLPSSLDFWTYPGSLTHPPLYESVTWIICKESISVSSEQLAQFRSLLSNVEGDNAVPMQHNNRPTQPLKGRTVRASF

Carbonic anhydrase 9 [2] = biological target: T1, Carbonic anhydrase 9; assay: Ratio of acetazolamide Ki to compound Ki for human recombinant carbonic anhydrase 9

Compound	pKi (Carbonic anhydrase 2)	pKi (Carbonic anhydrase 9 [1])	pKi (Carbonic anhydrase 1)	Ratio Ki (Carbonic anhydrase 9 [2])
Nc1ccccc1-c1cnnn1-c1ccc2c(c1)C=CS(=O)(=O)O2	< 5.00	8.02	< 5.00	–
COc1ccc(-c2cnnn2-c2ccc3c(c2)C=CS(=O)(=O)O3)cc1	< 5.00	8.08	< 5.00	–
O=S1(=O)C=Cc2cc(-n3nncc3-c3cccc(Cl)c3)ccc2O1	< 5.00	8.06	< 5.00	–
O=S1(=O)C=Cc2cc(-n3nncc3-c3ccc(C(F)(F)F)cc3)ccc2O1	< 5.00	8.14	< 5.00	–
O=S1(=O)C=Cc2cc(-n3nncc3-c3ccc(Cl)cc3)ccc2O1	< 5.00	8.04	< 5.00	–
O=S1(=O)C=Cc2cc(-n3cc(-c4ccc(C(F)(F)F)cc4)nn3)ccc2O1	< 5.00	6.87	< 5.00	–
O=S1(=O)C=Cc2cc(-n3nncc3-c3cccc(F)c3)ccc2O1	< 5.00	8.13	< 5.00	–
O=S1(=O)C=Cc2cc(-n3cc(-c4cccc(Cl)c4)nn3)ccc2O1	< 5.00	7.03	< 5.00	–
O=S1(=O)C=Cc2cc(-n3nncc3-c3ccc(OC(F)(F)F)cc3)ccc2O1	< 5.00	6.99	< 5.00	–
COc1cccc(-c2cnnn2-c2ccc3c(c2)C=CS(=O)(=O)O3)c1	< 5.00	8.04	< 5.00	–
CC(C)(C)c1cn(-c2ccc3c(c2)C=CS(=O)(=O)O3)nn1	< 5.00	7.98	< 5.00	–
Nc1ccccc1-c1cn(-c2ccc3c(c2)C=CS(=O)(=O)O3)nn1	< 5.00	8.10	< 5.00	–
O=S1(=O)C=Cc2cc(-n3nncc3-c3ccccc3)ccc2O1	< 5.00	7.17	< 5.00	–
Nc1cccc(-c2cn(-c3ccc4c(c3)C=CS(=O)(=O)O4)nn2)c1	< 5.00	6.06	< 5.00	–
O=S1(=O)C=Cc2cc(-n3nncc3-c3ccc(F)cc3)ccc2O1	< 5.00	–	< 5.00	–
O=S1(=O)C=Cc2cc(-n3cc(-c4ccc(Cl)cc4)nn3)ccc2O1	< 5.00	–	< 5.00	3
O=S1(=O)C=Cc2cc(-n3cc(-c4cccc(F)c4)nn3)ccc2O1	< 5.00	–	< 5.00	–
CC(C)(O)c1cn(-c2ccc3c(c2)C=CS(=O)(=O)O3)nn1	< 5.00	7.20	< 5.00	–
O=S1(=O)C=Cc2cc(-n3cc(C4CC4)nn3)ccc2O1	< 5.00	–	< 5.00	–
O=S1(=O)C=Cc2cc(-n3nncc3-c3cccc(C(F)(F)F)c3)ccc2O1	< 5.00	–	< 5.00	–
O=S1(=O)C=Cc2cc(-n3cc(-c4ccc(F)cc4)nn3)ccc2O1	< 5.00	–	< 5.00	–
